In patent US20210283213A1, “CRYSTAL OF POLYMYXIN B1 SULFATE, POLYMYXIN B2 SULFATE OR THEIR MIXTURE AND PREPARATION METHOD THEREOF” (Hubei Ruihaoanke Pharmaceutical Technology Development Co., …, priority 2016, published 2021):

How the values were obtained:
Type in all cases: physicochemical
[1] = TGA (thermogravimetric analysis)
[2] = Stability evaluation of crystal form in a dry state at room temperature; settings: placed in a dry state at room temperature for 3 days
[3] = Hot stage XRD
[4] = DVS (dynamic moisture adsorption analysis); settings: 0% RH-80% RH
[5] = Crystal mush experiment at room temperature; settings: in ethanol and in a mixed solvent of ethanol/water at room temperature
Experimental: (§1) A competitive experiment between crystal form 1 and crystal form A of polymyxin sulfate was carried out to investigate crystal form stability of the two crystal forms in the solvent, water and ethanol, which are commonly used in the preparation, and to evaluate the conversion of the two crystal forms, in order to provide reference for subsequent preparation operations such as granulation.

[6] = Crystal form competitive experiment; settings: in ethanol and in a mixed solvent of ethanol/water at room temperature
Experimental: as §1
1. Equal amounts of samples of crystal form 1 and form A were taken and mixed uniformly to obtain an initial mixed sample, which was used for XRD detection (FIG. 14).
2. The uniformly-mixed sample was divided into two portions, to one of which was added 200 μL ethanol, and to another of which was added 300 μL mixed solvent of ethanol/water=5/1 (v/v), to form a suspension. The suspension was stirred at room temperature, and centrifuged and sampled at different times for XRD detection.

| hygroscopicity [4] | most stable crystal form (crystal mush experiment) [5] | most stable crystal form (competitive experiment) [6] | Substance | decomposition temperature [1] | Stability evaluation [2] | crystal form change on heating [3] |
| --- | --- | --- | --- | --- | --- | --- |
| extremely strong hygroscopicity. | – | – | polymyxin B1 sulfate [crystal form 1] | XRD, and the decomposition temperature was 222 °C | Unstable, the crystal form changed to crystal form A when placed | The crystal form has not changed when heating up to 170 °C |
| extremely strong hygroscopicity. | most stable crystal form | most stable crystal form | polymyxin B1 sulfate [crystal form A] | with hot stage XRD, and the decomposition temperature was 213 °C | – | – |
